Measured values taken from patent US4931463A, “Oxetanones” (Hoffmann-La Roche Inc., priority 1987, dated 1990).
Like-named read-outs stand apart in the source and are kept apart here.

How the values were obtained:
pig pancreas lipase = target: T1, pig pancreas lipase (Sus scrofa, UniProt P00591); assay: Inhibition of pancreas lipase, titrimetric registration of oleic acid liberated in the cleavage of triolein; assay type: biochemical
T1 sequence (P00591 1-450): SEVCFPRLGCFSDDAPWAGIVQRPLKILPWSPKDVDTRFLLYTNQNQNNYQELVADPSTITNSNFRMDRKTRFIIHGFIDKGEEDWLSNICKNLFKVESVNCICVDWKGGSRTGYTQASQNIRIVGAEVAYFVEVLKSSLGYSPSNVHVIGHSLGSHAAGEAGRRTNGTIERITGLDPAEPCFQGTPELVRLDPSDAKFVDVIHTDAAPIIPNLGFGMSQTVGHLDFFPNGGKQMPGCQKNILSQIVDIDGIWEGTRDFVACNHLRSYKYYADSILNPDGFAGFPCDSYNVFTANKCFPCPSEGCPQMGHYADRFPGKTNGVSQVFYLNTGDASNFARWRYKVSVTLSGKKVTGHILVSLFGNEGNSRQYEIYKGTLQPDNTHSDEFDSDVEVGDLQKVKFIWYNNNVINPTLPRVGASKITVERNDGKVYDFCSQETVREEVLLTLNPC
Experimental: To an emulsion which contains 1 mM of taurodeoxycholate, 9 mM of taurocholeate, 0.1 mM of cholesterol, 1 mM of egg lecithin, 15 mg/ml of BSA, 2 mM of Tris HCl, 100 mM of sodium chloride, 1 mM of calcium chloride and triolein as the substrate was added the compound of formula I dissolved in ethanol or dimethyl sulfoxide (10% of the emulsion volume) and the reaction was started by the addition of 100 μg (175 U) of pig pancreas lipase. The pH was held at 8 during the reaction by the addition of sodium hydroxide solution. The IC50 was calculated from the consumption of sodium hydroxide solution determined during 10 minutes. The IC50 was that concentration at which the lipase activity was inhibited to half of the maximum.

mice = assay: Acute toxicity after single oral administration to mice; assay type: in vivo
[1] = pig pancreas lipase 100 μg (175 U), triolein substrate, pH 8, 10 minutes, concentration at which lipase activity was inhibited to half of the maximum, read-out: IC50 (converted)

For C=CC[C@@H]1C(=O)O[C@H]1CC(CCCCCCCCCCC)OC(=O)[C@H](CC(C)C)NC=O (mixture of isomers) [Example 2, 14, N-formyl-L-leucine 1-[(trans-3-allyl-4-oxo-2-oxetanyl)methyl]dodecyl ester], the IC50 (pig pancreas lipase) was 33.2 nM and the “Toxicity (dose of the compound at which the animal survives)” value (“Toxicity” below) (mice) was 5000 mg/kg p.o.
In the case of CCCCCC[C@@H]1C(=O)O[C@H]1CC(CCCC)OC(=O)[C@H](CC(C)C)NC=O (mixture of isomers) [Example 5, N-formyl-L-leucine 1-[(trans-3-hexyl-4-oxo-2-oxetanyl]-methyl]pentyl ester], the IC50 (pig pancreas lipase; [1]) is reported as 503 nM.
CCCCCCCCCCCC(C[C@@H]1OC(=O)[C@H]1CCCCCC)OC(=O)[C@@H](N)CC(C)C (relative stereo) [Example 7, leucine 1-[(trans-3-hexyl-4-oxo-2-oxetanyl)methyl]dodecyl ester] was tested, and the IC50 (pig pancreas lipase; [1]) was 32100 nM.
In the case of CCCCCCCCCCC[C@H](O)C[C@@H]1OC(=O)[C@H]1CCCCCC (relative stereo) [Example 9 F.2., rac-trans-3-hexyl-4-(2-hydroxytridecyl)-2-oxetanone(2S,3S,4S:2R,3R,4R)], the IC50 (pig pancreas lipase; [1]) is reported as 240000 nM.
Work on CCCCCCCCCCCC(C[C@@H]1OC(=O)[C@H]1CC)OC(=O)[C@H](CC(C)C)NC=O (single isomer, unassigned) [Example 2, 13a, N-formyl-L-leucine 1-[(trans-3-ethyl-4-oxo-2-oxetanyl)methyl]dodecyl ester] yielded an IC50 (pig pancreas lipase; [1]) of 15.9 nM.
In the case of CCCCCCCC/C=C\CCCCCCC[C@@H](C[C@@H]1OC(=O)[C@H]1CC)OC(=O)[C@H](CC(C)C)NC=O (single isomer, unassigned) [Example 2, 23a], the IC50 (pig pancreas lipase) is reported as 67.1 nM and the “Toxicity” value (mice) is reported as 2000 mg/kg p.o.
CCCCC/C=C\C/C=C\CCCCCCC[C@@H](C[C@@H]1OC(=O)[C@H]1CC)OC(=O)[C@H](CC(C)C)NC=O [Example 2, 21] was tested, and the IC50 (pig pancreas lipase; [1]) was 38.5 nM.
CC[C@@H]1C(=O)O[C@H]1C[C@@H](OC(=O)[C@H](CC(C)C)NC=O)c1ccc(Oc2ccccc2)cc1 [Example 2, 25a, N-formyl-(S)-leucine (R)-α-[[(2S,3S)-3-ethyl-4-oxo-2-oxetanyl]methyl]-p-phenoxybenzyl ester] gave an IC50 (pig pancreas lipase; [1]) of 22 nM.
With C=CCC[C@@H](C[C@@H]1OC(=O)[C@H]1CCCCCCCCCC)OC(=O)[C@H](CC(C)C)NC=O [Example 2, 34, N-formyl-L-leucine (S)-1-[[(2S,3S)-3-decyl-4-oxo-2-oxetanyl]methyl]-4-pentenyl ester] the IC50 (pig pancreas lipase) was 288 nM and the “Toxicity” value (mice) was 4000 mg/kg p.o.
CCCCCCCCCCCCCCCCC[C@@H](C[C@@H]1OC(=O)[C@H]1CC)OC(=O)[C@H](CC(C)C)NC=O [Example 4, 1, N-formyl-(S)-leucine (S)-1[[(2S,3S)-3-ethyl-4-oxo-2-oxetanyl]methyl]octadecyl ester] showed an IC50 (pig pancreas lipase; [1]) of 210 nM.
CCCCCC[C@@H]1C(=O)O[C@H]1C[C@H](CCCC)OC(=O)[C@H](Cc1ccccc1)NC=O [Example 6, 2, N-formyl-L-phenylalanine (S)-1-[[(2S,3S)-3-hexyl-4-oxo-2-oxetanyl]methyl]-4-pentyl ester] was tested, and the IC50 (pig pancreas lipase) was 2320 nM.
